This note sets out measurements from patent US20080167314A1, “Condensed Imidazole Compound And Use Thereof” (priority 2004, published 2008).

By IC50 is commonly meant the concentration at which inhibition is half-maximal. Read a low IC50 as greater potency. One may read the melting point as the temperature, or range, at which the solid turns liquid.

Data set [1] deals with T1, active form p38 MAP kinase (Homo sapiens, UniProt Q16539).
T1 construct: made in house; host or cells: Sf-21 insect cells, baculovirus BAC-HP38 co-infected with BAC-caMKK3
T1 sequence (Q16539 whole entry): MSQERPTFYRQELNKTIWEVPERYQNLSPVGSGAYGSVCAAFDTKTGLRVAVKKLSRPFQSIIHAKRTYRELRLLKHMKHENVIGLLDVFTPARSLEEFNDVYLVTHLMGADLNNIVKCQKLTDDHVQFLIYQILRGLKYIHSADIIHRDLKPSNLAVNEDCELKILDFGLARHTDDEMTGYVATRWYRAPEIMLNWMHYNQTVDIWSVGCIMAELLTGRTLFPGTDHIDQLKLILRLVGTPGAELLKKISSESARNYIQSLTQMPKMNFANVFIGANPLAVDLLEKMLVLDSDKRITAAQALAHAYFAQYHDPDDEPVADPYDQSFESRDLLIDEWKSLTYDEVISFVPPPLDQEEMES
Briefly: Measurement of the p38 MAP kinase inhibitory activity (32P uptake into Myelin Basic Protein). It counts as biochemical. The settings on record: 260 ng active form p38 MAP kinase, 1 μg Myelin Basic Protein, 2.5 μM ATP solution, 30° C. for 60 minutes. The method, then: (1) Cloning of Human p38 MAP Kinase Gene and Preparation of Recombinant Baculovirus
Cloning of human p38 MAP kinase gene was performed by a PCR method using a primer set P38-U:
(3) Preparation of Active Form p38 MAP Kinase
The Sf-21 cells were seeded on 100 ml Sf-900II SFM medium (GIBCOBRL) to 1×10^6 cells/mL and cultured at 27° C. for 24 hours. After each 0.2 mL of the virusstock BAC-HP38 of recombinant Baculovirus and BAC-caMKK3 were added, the culturing was further performed for 48 hours. After the cells were separated from the culturing solution by centrifugation (3000 rpm, 10 min), the cells were washed twice with PBS. After the cells were suspended in 10 ml Lysis buffer (25 mM HEPES (pH 7.5), 1% Triton X, 130 mM NaCl, 1 mM EDTA, 1 mM DTT, 25 mM β-glycerophosphate, […], 1 mM APMSF, 1 mM Sodium orthovanadate), the cells were lysed by treating twice with a homogenizer (POLYTRON) at 20000 rpm for 2 minutes. By using Anti-FLAG M2 Affinity Gel (Eastman Chemical), active form p38 MAP kinase was purified from the supernatant obtained by centrifugation (40000 rpm, 45 minutes).
(4) Measurement of the p38 MAP Kinase Inhibitory Activity
2.5 μL of a test compound dissolved in DMSO was added to 37.5 μL reaction solution (25 mM HEPES (pH 7.5), 10 mM Magnesium Acetate) containing 260 ng active form p38 MAP kinase and 1 μg Myelin Basic Protein, which was maintained at 30° C. for 5 minutes. The reaction was initiated by adding 10 μL ATP solution (2.5 μM ATP, 0.1 μCi [g-^32P]ATP). After the reaction was performed at 30° C. for 60 minutes, the reaction was stopped by adding 50 μL 20% TCA solution. After the reaction solution was allowed to stand at 0° C. for 20 minutes, an acid insoluble fraction was transferred to GF/C filter (Packard Japan) using Cell Harvester (Packard Japan) and washed with 250 mM H3PO4. After drying at 45° C. for 60 minutes, […] Microscint 0 (Packard Japan) was added and the radioactivity was measured with a TopCount (Packard Japan). The concentration (IC50 value) necessary for inhibiting uptake of ^32P into an acid insoluble fraction by 50% was calculated with PRISM 2.01 (Graphpad Software).

In data set [2] the test system is MMP-13 production in human normal articular chondrocytes. Briefly: Measurement of MMP-13 production inhibitory activity in rhIL-1β-stimulated human normal articular chondrocytes (ELISA). The data set is classed as cell-based. The conditions noted are these: Chondrocyte, rhIL-1β 0.1 ng/mL, 24 hr, MMP-13 in culture supernatant by ELISA. Here is the method:
Measurement of MMP-13 Production Inhibitory Activity
Human normal articular chondrocytes (Camblex) were grown in a chondrocyte growth medium (CGM: Camblex), and the cells were suspended in a chondrocyte differentiation medium (CDM: Camblex) and plated on a 96 well plate at 2×10^4 cells/well (150 μL/well). After culturing for 3 days under 37° C., 5% CO2 conditions, the culture medium was exchanged to 0.1% BSA added α-modification of Eagle's (α-MEM: Gibco), and the cells were cultured for 4 hr. The compound was added thereto and, after culture for 1 hr, recombinant human IL-1β (rhIL-1β: R&D systems) was added at 0.1 ng/mL. After culture for 24 hr, the culture supernatant was recovered, and the concentration of MMP-13 in the culture supernatant was measured by the ELISA method (Amersham).
For orientation: In an ELISA, binding on a coated surface is turned into a signal by an enzyme label.

Data set [3] deals with TNF-α production in THP-1 cells. Briefly: Measurement of TNF-α production inhibitory activity in LPS-stimulated THP-1 cells (ELISA). It counts as cell-based. The settings on record: Homo sapiens, LPS 5 μg/mL, 4 hours, TNF-α in supernatant by ELISA. The method, then:
Measurement of TNF-α Production Inhibitory Activity
After THP-1 cells which had been cultured in PRMI 1640 medium (manufactured by Life Technologies, Inc.) containing 1% non-activated bovine fetal serum (manufactured by Life Technologies, Inc., U.S.A.) and 10 mM HEPES (pH 7.5) was plated on a 96-well plate to 1×10^5 cells/well, 1 μL test compound dissolved in DMSO was added to there. After incubation at 37° C. for 1 hour in a CO2 incubator, LPS (Wako Pure Chemicals) was added to the final concentration 5 μg/mL. After cultured at 37° C. for 4 hours in a CO2 incubator, the supernatant was obtained by centrifugation. The concentration of TNF-α in the supernatant was measured with ELISA (R&D System, Quantikine Kit). The concentration (IC50 value) necessary for inhibiting TNF-α production by 50% was calculated by PRIMS 2.01 (Graphpad Software).

Molecules are shown by their SMILES.

As to `COc1ccc(C(=O)Nc2cc(-c3c(-c4ccc(F)c(C)c4)nc4cccnn34)ccn2)cc1` [Example 21-16, N-{4-[2-(4-fluoro-3-methylphenyl)imidazo[1,2-b]pyridazin-3-yl]pyridin-2-yl}-4-methoxybenzamide], the results for the half-maximal inhibitory concentration (IC50) in data set [1], in data set [2] and in data set [3] were 0.0012 µM, 0.041 µM and 0.014 µM, respectively.

Turning to `CC(=O)Nc1cc(-c2c(-c3cccc(C)c3)nc3ccc(Cl)nn23)ccn1` [Example 17, N-{4-[6-Chloro-2-(3-methylphenyl)imidazo[1,2-b]pyridazin-3-yl]pyridin-2-yl}acetamide], the IC50 in data set [1] came out at 0.023 µM; in data set [2] it was 0.22 µM; in data set [3], 0.12 µM.

Regarding `Cc1cccc(-c2nc3ccc(Cl)nn3c2-c2ccnc(F)c2)c1` [Example 1, 6-Chloro-3-(2-fluoropyridin-4-yl)-2-(3-methylphenyl)imidazo[1,2-b]pyridazine], the figures for the IC50 in data set [1], in data set [2] and in data set [3] were 0.11 µM, 0.6 µM and 0.95 µM, respectively.

In the case of `Cc1cccc(-c2nc3ccc(Cl)nn3c2-c2ccnc(NC3CCCCC3)c2)c1` [Example 2, 4-[6-Chloro-2-(3-methylphenyl)imidazo[1,2-b]pyridazin-3-yl]-N-cyclohexylpyridin-2-amine], the values for the IC50 in data set [1], in data set [2] and in data set [3] were 0.19 µM, 0.011 µM and 0.028 µM, respectively.

Turning to `Cc1cccc(-c2nc3cccnn3c2-c2ccnc(NC(=O)Nc3ccccc3)c2)c1` [Example 26, N-{4-[2-(3-Methylphenyl)imidazo[1,2-b]pyridazin-3-yl]pyridin-2-yl}-N′-phenylurea], the IC50 in data set [1] is 0.022 µM; in data set [2] it was 0.077 µM; in data set [3], 0.33 µM.

As to `Cc1cc(-c2nc3cccnn3c2-c2ccnc(NC(=O)c3ccc4ncsc4c3)c2)ccc1F` [Example 42-35, N-{4-[2-(4-fluoro-3-methylphenyl)imidazo[1,2-b]pyridazin-3-yl]pyridin-2-yl}-1,3-benzothiazole-6-carboxamide], the IC50 in data set [1] turned out to be 0.0039 µM; in data set [2], 0.0062 µM; in data set [3] it was 0.0025 µM.

On to `Cc1cccc(-c2nc3cccnn3c2-c2ccnc(Nc3ccccc3C)c2)c1` [Example Compound 6-10, N-(2-methylphenyl)-4-[2-(3-methylphenyl)imidazo[1,2-b]pyridazin-3-yl]pyridin-2-amine], for which the results for the concentration for half-maximal inhibition (IC50) in data set [1], in data set [2] and in data set [3] were 0.0026 µM, 0.082 µM and 0.0098 µM, respectively.

`Cc1cccc(-c2nc3cccnn3c2-c2ccnc(NC(=O)c3ccc(F)cc3)c2)c1` [Example compound 20-11, 4-fluoro-N-{4-[2-(3-methylphenyl)imidazo[1,2-b]pyridazin-3-yl]pyridin-2-yl}benzamide]: the IC50 in data set [1] stood at 0.014 µM; in data set [2] it was 0.04 µM; in data set [3] it was 0.0038 µM.

For the compound `Cc1cc(-c2nc3cccnn3c2-c2ccnc(NC(=O)c3ccc4ncccc4c3)c2)ccc1F` [Example 42-36, N-{4-[2-(4-fluoro-3-methylphenyl)imidazo[1,2-b]pyridazin-3-yl]pyridin-2-yl}-6-quinolinecarboxamide], the half-maximal inhibitory concentration (IC50) was 0.0034 µM in data set [1], 0.011 µM in data set [2] and 0.0071 µM in data set [3].

As to `Cc1cc(-c2nc3cccnn3c2-c2ccnc(NC(=O)c3ccncc3)c2)ccc1F` [Example 42-23, N-{4-[2-(4-fluoro-3-methylphenyl)imidazo[1,2-b]pyridazin-3-yl]pyridin-2-yl}isonicotinamide], the results for the IC50 in data set [2] and in data set [3] were 0.014 µM and 0.01 µM, respectively.

With `Cc1ccc(C(=O)Nc2cc(-c3c(-c4ccc(F)c(C)c4)nc4cccnn34)ccn2)cn1` [Example 42-27, N-{4-[2-(4-fluoro-3-methylphenyl)imidazo[1,2-b]pyridazin-3-yl]pyridin-2-yl}-6-methylnicotinamide], the IC50 in data set [2] came to 0.016 µM; in data set [3], 0.0015 µM.

Consider `Cc1cc(-c2nc3cccnn3c2-c2ccnc(NC(=O)c3cccnc3)c2)ccc1F` [Example 59, N-{4-[2-(4-Fluoro-3-methylphenyl)imidazo[1,2-b]pyridazin-3-yl]pyridin-2-yl}nicotinamide], for which the half-inhibitory concentration (IC50) in data set [2] is 0.02 µM; in data set [3], 0.0029 µM.

Regarding `Cc1cccc(-c2nc3cccnn3c2-c2ccnc(NC(=O)c3ccccc3)c2)c1` [Example 19, N-{4-[2-(3-Methylphenyl)imidazo[1,2-b]pyridazin-3-yl]pyridin-2-yl}benzamide], the values for the IC50 in data set [2] and in data set [3] were 0.073 µM and 0.018 µM, respectively.

For `Cc1cc(C(=O)Nc2cc(-c3c(-c4ccc(F)c(C)c4)nc4cccnn34)ccn2)ccn1` [Example 58, N-{4-[2-(4-Fluoro-3-methylphenyl)imidazo[1,2-b]pyridazin-3-yl]pyridin-2-yl}-2-methylisonicotinamide], the IC50 came to 0.041 µM in data set [2] and 0.0022 µM in data set [3].

Compound `COc1ccc(C(=O)Nc2cc(-c3c(-c4ccc(F)c(C)c4)nc4cccnn34)ccn2)cc1F` [Example 42-12, 3-fluoro-N-{4-[2-(4-fluoro-3-methylphenyl)imidazo[1,2-b]pyridazin-3-yl]pyridin-2-yl}-4-methoxybenzamide] registered a melting point of 202 to 203 °C.

The compound `O=C(Nc1cc(-c2c(-c3ccc(F)cc3)nc3cccnn23)ccn1)c1ccncc1` [Example 40-1, N-{4-[2-(4-fluorophenyl)imidazo[1,2-b]pyridazin-3-yl]pyridin-2-yl}isonicotinamide] yielded a melting point of 226 to 227 °C.

Compound `CCNC(=O)Nc1cc(-c2c(-c3cccc(C)c3)nc3cccnn23)ccn1` [Example Compound 27-4, N-ethyl-N′-(4-[2-(3-methylphenyl)imidazo[1,2-b]pyridazin-3-yl]pyridin-2-yl)urea] yielded a melting point of 212 to 213 °C.

The compound `Cc1cccc(-c2nc3cccnn3c2-c2ccnc(NC3CCC3)c2)c1` [Example Compound 6-3, N-cyclobutyl-4-[2-(3-methylphenyl)imidazo[1,2-b]pyridazin-3-yl]pyridin-2-amine] displayed a melting point of 152 to 153 °C.

The compound `Cc1cccc(-c2nc3cccnn3c2-c2ccnc(Nc3cccc(C)c3C)c2)c1` [Example Compound 6-7, N-(2,3-dimethylphenyl)-4-[2-(3-methylphenyl)imidazo[1,2-b]pyridazin-3-yl]pyridin-2-amine] registered a melting point of 187 to 188 °C.

With `Cc1cccc(-c2nc3cccnn3c2-c2ccnc(NCc3cccs3)c2)c1` [Example Compound 6-15, 4-[2-(3-methylphenyl)imidazo[1,2-b]pyridazin-3-yl]-N-(2-thienylmethyl)pyridin-2-amine], the melting point is 185 to 186 °C.

In the case of `COc1cc(C(=O)Nc2cc(-c3c(-c4ccc(F)c(C)c4)nc4cccnn34)ccn2)ccc1F` [Example 42-11, 4-fluoro-N-{4-[2-(4-fluoro-3-methylphenyl)imidazo[1,2-b]pyridazin-3-yl]pyridin-2-yl}-3-methoxybenzamide], the melting point lay in the range of 217 to 218 °C.
